How the values were obtained:
[1] = tested on: THP-1 cells; assay: Wash assay (adherence assay) of SRBW stimulated monocytes pretreated with inhibitors/chelators; assay type: cell-based; details: SRBW Treatment 4, 36 hours post exposure, BAPTA-AM 20 μM, Thapsigargin 300 nM, TPEN 1 mM, GGTI-298 15 μM, HJC0197 25 μM, FIG. 18, 19
Description: Cell culture and Mechanostimulation: THP-1 cells were obtained from CellBank (Children Medical Research institute, NSW) and grown in suspension in RPMI+Glutamax supplemented with 10% (v/v) heat-inactivated FBS with 1% penicillin-streptomycin in a humidified 37° C., 5% CO2 incubator. Low passage (passage 15 or less) cells were seeded at cell density ranging from 0.5×10^5-0.5×10^6 per cm^2. The cells were then stimulated with SRBW at a frequency of 10 Mhz and at the indicated input power and duration. The cells were stimulated and processed at different post-exposure incubation times (24 h, 36 h, 48 h, 72 h, Day 5, Day 7, Day 9).
Wash Assay: Control (untreated) and treated cells were initially characterised by wash-assay or adherence assay. Undifferentiated THP1 cells were non-adherent cells. Accordingly, cells were initially characterised by determining the percentage of adherent cells. The spent media from control and treated wells were carefully collected into labelled centrifuge tubes. The wells were washed three times with media. After each wash, the wash media was collected into corresponding centrifuge tubes. The tubes were then centrifuged at 250×g for 5 minutes. The supernatant was carefully removed, and the pellet was homogeneously mixed with 1×PBS. The cells collected from spent and wash media were counted trypan blue exclusion assay using a hemocytometer. The percentage of adherent cells was calculated by (number of cells from control wells—number of cells from treated wells/number of cells from control wells)×100. The viability was also determined using the same. The change in the cellular morphology was also recorded using Nikon.

[2] = tested on: HUVEC monolayers; assay: Intracellular cAMP (cyclic AMP XP assay) in SRBW mechanostimulated cells with Ca2+ inhibitors and chelators; assay type: cell-based, human; details: for cAMP release: SRBW pretreatment in the presence of extracellular calcium, then sequential treatment, FIG. 2(e-iv), 2(e-v); for cAMP levels under SRBW mechanostimulation: pretreatment with BAPTA-AM and TPEN together, FIG. 2(e-ii)
Description: (§1) Endothelial cells were cultured in Endothelial Cell Growth Medium-2 (EGM™2) BulletKit™ in a humidified incubator maintained at 37° C. and 5% CO2. The cells were grown in a standard T25 flask until they reached 80-90% confluency, following which they were detached using 0.05% trypsin-EDTA, reseeded in the culture plates at a density of 5000 cells/cm2 and incubated until they reached 90-95% confluency. The confluent monolayer is then exposed to the SRBW irradiation at the prescribed input power and duration. The cells were immediately processed for analysis upon removal of the acoustic field at various post-exposure incubation timepoints.
cAMP concentrations were measured through a cyclic AMP XP™ assay. Briefly, the EC monolayers were washed in Tyrode's buffer (137mMsodium chloride, 12mMsodium bi-carbonate, 5.5 mM glucose, 2 mM potassium chloride, 1mMmagnesium chloride and 0.3 mM disodium hydrogen phosphate) at pH 7.4 supplemented with […] IBMX—a phosphodiesterase inhibitor, to prevent the hydrolysis of cAMP. The cells were then exposed to the SRBW followed by incubation at different time points, after which the cells were lysed in 100 μl of lysis buffer that was supplied with the kit. 25 μl of the cell lysate and HRP-linked cAMP solution was subsequently transferred into the cAMP assay microtiter plates provided and incubated for 3 hrs at room temperature. Following incubation, the plate was washed four times and the liquid discarded. 100 μl of the supplied 3,3′,5,5″-tetramethylbenzidine (TMB) was then added and the solution incubated in the dark for 15 mins. The reaction was ceased by adding 100 μl of the provided STOP solution and its absorbance measured at 450 nm using a spectrophotometric plate reader (CLARIOstar, BMG LabTech, Mornington, VIC, Australia). The average of three measurements per treatment group was taken for cells from each individual culture, from which the cAMP concentrations can be calculated using a standard curve.

[3] = tested on: endothelial cells; assay: Stress fibre (SF) formation after SRBW exposure under ROCK inhibition; assay type: cell-based, human; details: initial sonochallenge phase, early times (<0.3 hrs) after SRBW; data not shown
[4] = tested on: HUVEC monolayers; assay type: cell-based, human; details: SRBW 8 mins at 1.5 W; in the presence of piezo channel inhibitor; FIG. 4(b)
Description: as §1
Free cytosolic calcium levels were determined using the fluorescent calcium indicator Fura-2AM. In brief, the EC monolayers were incubated in […] Fura-2AM in Opti-MEM™ reduced serum medium supplemented with 2% (vol/vol) heat-inactivated FBS at 37° C. in the dark. […] The fluorescence emission intensity at 510 nm in individual wells at excitation wavelengths of 340 and 380 nm were measured using a spectrophotometric plate reader (CLARIOstar® BMG LabTech, Mornington, VIC, Australia). The ratio of Fura-2 AM fluorescence emission in response to 340 nm and 380 nm excitation (340/380) was calculated and expressed in terms of the fold change with respect to that of the respective control (unexcited) cells. […]

[5] = tested on: HUVEC monolayers; assay: VE-cadherin remodelling, CAB formation, linearity index and AJ length in SRBW mechanostimulated cells with pathway inhibitors; assay type: cell-based, human; details: for Linearity index / AJ length (adhesion site length) / CAB formation: SRBW 8 mins at 1.5 W, GGTI-298 15 μM, NSC23766 10 μM; for Linearity index / AJ length (adhesion site length): 30 mins post exposure; for Linearity index: FIG. 6(b); for AJ length (adhesion site length): FIG. 6(c)

c1ccc(CN(CCN(Cc2ccccn2)Cc2ccccn2)Cc2ccccn2)nc1 [TPEN, N,N,N′,N′-tetrakis(2-pyridinylmethyl)-1,2-ethanediamine]
number of adherent cells [1]: failed to transform to adherent cells | cAMP release [2]: affected | cAMP levels under SRBW mechanostimulation [2]: increased under the SRBW mechanostimulation only when extracellular calcium is present

C[C@@H](N)[C@H]1CC[C@H](C(=O)Nc2ccncc2)CC1.Cl.Cl [Y27632, (R)-(+)-trans-4-(1-aminoethyl)-N-(4-pyridyl)cyclohexanecarboxamide dihydrochloride]
stress fibre (SF) formation [3]: SF attenuation

N.N.N.N.N.N.N.N.N.N.N.N.N.N.[Cl-].[Cl-].[Cl-].[Cl-].[Cl-].[Cl-].[O-2].[O-2].[Ru+3].[Ru+3].[Ru+4] [ruthenium red]
intracellular calcium under the high frequency excitation [4]: abatement of intracellular calcium

CCN(CC)CCCC(C)Nc1nc(C)cc(Nc2ccc3nc(C)cc(N)c3c2)n1.Cl.Cl.Cl (racemic) [NSC23766, N6-[2-(4-diethylamino-1-methyl-butylamino)-6-methyl-pyrimidin-4-yl]-2-methyl-quinoline-4,6-diamine trihydrochloride]
Linearity index [5]: departure from linearity | AJ length (adhesion site length) [5]: increased adhesion site length | CAB formation ([5]; data not shown): only limited CAB formation

COC(=O)[C@H](CC(C)C)NC(=O)c1ccc(NC[C@@H](N)CS)cc1-c1cccc2ccccc12.O.O=C(O)C(F)(F)F [GGTI-298, N-[[4-(2-(R)-amino-3-mercaptopropyl)amino]-2-naphthylbenzoyl]leucine methyl ester trifluoroacetate salt hydrate]
number of adherent cells [1]: significantly reduced | Linearity index [5]: departure from linearity | AJ length (adhesion site length) [5]: increased adhesion site length | CAB formation ([5]; data not shown): only limited CAB formation

Cc1ccc(C)c(CSc2nc(C3CCCC3)c(C#N)c(=O)[nH]2)c1 [HJC0197, 4-cyclopentyl-2-[[(2,5-dimethylphenyl)methyl]thio]-1,6-dihydro-6-oxo-5-pyrimidinecarbonitrile]
number of adherent cells [1]: significantly reduced

CCCCCCOC(=O)[C@]1(O)C[C@H]2O[C@]1(C)n1c3ccccc3c3c4c(c5c6ccccc6n2c5c31)C(=O)NC4 [KT5720, (9S,10S,12R)-2,3,9,10,11,12-hexahydro-10-hydroxy-9-methyl-1-oxo-9,12-epoxy-1H-diindolo[1,2,3-fg:3′,2′,1′-kl]pyrrolo[3,4-i][1,6]benzodiazocine-10-carboxylic acid hexyl ester]
VE-cadherin remodelling and CAB formation ([5]; treated prior to SRBW mechanostimulation, data not shown): quelled

CC(=O)OCOC(=O)CN(CC(=O)OCOC(C)=O)c1ccccc1OCCOc1ccccc1N(CC(=O)OCOC(C)=O)CC(=O)OCOC(C)=O [BAPTA-AM, 1,2-bis(2-aminophenoxy)ethane-N,N,N′,N′-tetraacetic acid tetrakis(acetoxymethyl ester)]
number of adherent cells [1]: reduced significantly | cAMP release [2]: not suppressed | cAMP levels under SRBW mechanostimulation [2]: increased under the SRBW mechanostimulation only when extracellular calcium is present

C[C@H](CCC(=O)O)C[C@H](C)C[C@H](C)C(=O)/C=C(\O)[C@H](C)C[C@H](C)C/C=C/[C@@H](C)[C@@H](O)[C@@H](C)[C@@H](O)C[C@@H]1CC[C@@](C)([C@H]2CC[C@@](C)([C@@H](C)O)O2)O1 [ionomycin]
cAMP release [2]: affected | cAMP levels ([2]; SRBW pretreatment, then chelation/inhibition, then ionomycin added, FIG. 2(e-iii), 40-50 mins): cAMP levels were observed to rise
